Measured values taken from ChEMBL document CHEMBL3992552, “Mechanisms of action and structure-activity relationships of cytotoxic flavokawain derivatives” (Bioorg Med Chem, 2017).
Calls of active or inactive are those of the source. The calls are words filed in the database; no cut-off is given here.

Legend:
HCT-116 [1] = test: Cell cycle arrest in human HCT116 cells harboring wild-type p53 assessed as mitotic index at 10 uM measured after 48 hrs by Hoechst staining based fluorescence assay (reference value: 2.3); format: functional
Caco-2 [2] = test: Cell cycle arrest in human Caco2 cells assessed as accumulation at S phase at 10 uM measured after 48 hrs by Hoechst/BrdU staining based fluorescence assay (reference value: […]); format: functional
HaCaT [3] = test: Cell cycle arrest in human HaCaT cells harboring […] p53 assessed as mitotic index at 25 uM measured after 48 hrs by Hoechst staining based fluorescence assay (reference value: 2.6); format: functional
PC-3 [4] = test: Cell cycle arrest in human PC3 cells assessed as accumulation at M phase by Hoechst staining based fluorescence assay; format: functional
HCT-116 [5] = test: Induction of apoptosis in human HCT116 cells harboring wild-type p53 assessed as upregulation of p21 measured after 48 hrs by Hoechst staining based fluorescence assay; format: functional, cell-based
PC-3 [6] = test: Induction of apoptosis in human PC3 cells harboring p53 mutant assessed as increase in late apoptosis at 2 times IC50 after 48 hrs by YoPro/propidium iodide/Hoechst staining based assay; format: functional, cell-based
MCF7 [7] = test: Induction of apoptosis in human MCF7 cells harboring wild-type p53 assessed as upregulation of cyclinB1 measured after 18 hrs by Hoechst staining based assay; format: functional, cell-based
HaCaT [8] = test: Cytotoxicity against human HaCaT cells assessed as cell survival at 50 uM after 48 hrs by Hoechst 33342 staining based assay relative to control; format: functional; details: read-out: Survival
MDA-MB-231 [9] = test: Cell cycle arrest in human MDA-MB-231 cells harboring p53 mutant assessed as mitotic index at 25 uM measured after 48 hrs by Hoechst staining based fluorescence assay (reference value: 2.1); format: functional
NCI-H727 [10] = test: Cytotoxicity against human NCI-H727 cells assessed as cell survival at 50 uM after 48 hrs by Hoechst 33342 staining based assay relative to control; format: functional; details: NCI-H727, 48 h, read-out: Survival
MDA-MB-231 [11] = test: Cell cycle arrest in human MDA-MB-231 cells harboring p53 mutant assessed as accumulation at S phase at 10 uM measured after 48 hrs by Hoechst/BrdU staining based fluorescence assay (reference value: 42.2%); format: functional
MCF7 [12] = test: Induction of apoptosis in human MCF7 cells harboring wild-type p53 assessed as increase in early apoptosis at 2 times IC50 after 24 hrs by YoPro/propidium iodide/Hoechst staining based assay; format: functional, cell-based
PC-3 [13] = test: Induction of apoptosis in human PC3 cells harboring p53 mutant assessed as increase in early apoptosis at 2 times IC50 after 48 hrs by YoPro/propidium iodide/Hoechst staining based assay; format: functional, cell-based
[14] = Selectivity index, ratio of IC50 for human fibroblasts to IC50 for human HCT116 cells
[15] = Selectivity index, ratio of IC50 for human fibroblasts to IC50 for human MCF7 cells
RL = test: Cytotoxicity against human RL assessed as cell viability after 48 hrs by Hoechst 33342 staining based assay; format: functional
MDA-MB-231 [16] = test: Cytotoxicity against human MDA-MB-231 cells assessed as cell viability after 48 hrs by Hoechst 33342 staining based assay; format: functional; details: MDA-MB-231, 48 h
NCI-H727 [17] = test: Cell cycle arrest in human NCI-H727 cells harboring p53 mutant assessed as accumulation at S phase at 10 uM measured after 48 hrs by Hoechst/BrdU staining based fluorescence assay (reference value: 40.3%); format: functional
HaCaT [18] = test: Cell cycle arrest in human HaCaT cells harboring […] p53 assessed as mitotic index at 10 uM measured after 48 hrs by Hoechst staining based fluorescence assay (reference value: 2.6); format: functional
HCT-116 [19] = test: Induction of apoptosis in human HCT116 cells harboring wild-type p53 assessed as increase in early apoptosis at 2 times IC50 after 48 hrs by YoPro/propidium iodide/Hoechst staining based assay; format: functional, cell-based
MCF7 [20] = test: Induction of apoptosis in human MCF7 cells harboring wild-type p53 assessed as upregulation of p21 measured after 48 hrs by Hoechst staining based fluorescence assay; format: functional, cell-based
MDA-MB-231 [21] = test: Cell cycle arrest in human MDA-MB-231 cells harboring p53 mutant assessed as accumulation at S phase at 25 uM measured after 48 hrs by Hoechst/BrdU staining based fluorescence assay (reference value: 42.2%); format: functional
MCF7 [22] = test: Cytotoxicity against human MCF7 assessed as cell viability after 48 hrs by Hoechst 33342 staining based assay; format: functional; details: MCF7, 48 h
HCT-116 [23] = test: Cell cycle arrest in human HCT116 cells harboring wild-type p53 assessed as accumulation at S phase at 10 uM measured after 48 hrs by Hoechst/BrdU staining based fluorescence assay (reference value: 68.4%); format: functional
Caco-2 [24] = test: Cell cycle arrest in human Caco2 cells assessed as mitotic index at 25 uM measured after 48 hrs by Hoechst staining based fluorescence assay (reference value: 3.6); format: functional
PC-3 [25] = test: Cell cycle arrest in human PC3 cells harboring p53 mutant assessed as accumulation at S phase at 10 uM measured after 48 hrs by Hoechst/BrdU staining based fluorescence assay (reference value: 40.8%); format: functional
HCT-116 [26] = test: Cell cycle arrest in human HCT116 cells harboring wild-type p53 assessed as accumulation at S phase at 25 uM measured after 48 hrs by Hoechst/BrdU staining based fluorescence assay (reference value: 68.4%); format: functional
HCT-116 [27] = test: Induction of apoptosis in human HCT116 cells harboring wild-type p53 assessed as increase in late apoptosis at 2 times IC50 after 48 hrs by YoPro/propidium iodide/Hoechst staining based assay; format: functional, cell-based
HCT-116 [28] = test: Induction of apoptosis in human HCT116 cells harboring wild-type p53 assessed as increase in cleaved caspase3 at 2 times IC50 after 48 hrs by Hoechst staining based assay; format: functional, cell-based
MDA-MB-231 [29] = test: Induction of apoptosis in human MDA-MB-231 cells harboring p53 mutant assessed as increase in early apoptosis at 2 times IC50 after 24 hrs by YoPro/propidium iodide/Hoechst staining based assay; format: functional, cell-based
NCI-H727 [30] = test: Cell cycle arrest in human NCI-H727 cells harboring p53 mutant assessed as accumulation at S phase at 25 uM measured after 48 hrs by Hoechst/BrdU staining based fluorescence assay (reference value: 40.3%); format: functional
HCT-116 [31] = test: Cell cycle arrest in human HCT116 cells harboring wild-type p53 assessed as mitotic index at 25 uM measured after 48 hrs by Hoechst staining based fluorescence assay (reference value: 2.3); format: functional
Huh-7 = test: Cell cycle arrest in human HuH7 cells assessed as accumulation at S phase at 25 uM measured after 48 hrs by Hoechst/BrdU staining based fluorescence assay (reference value: 44%); format: functional
NCI-H727 [32] = test: Cell cycle arrest in human NCI-H727 cells harboring p53 mutant assessed as mitotic index at 25 uM measured after 48 hrs by Hoechst staining based fluorescence assay (reference value: 1.1); format: functional
[33] = Cytotoxicity against human fibroblasts assessed as cell survival at 50 uM after 48 hrs by Hoechst 33342 staining based assay relative to control; parameters: species or system Fibroblast; details: read-out: Survival
MDA-MB-231 [34] = test: Cell cycle arrest in human MDA-MB-231 cells assessed as accumulation at M phase by Hoechst staining based fluorescence assay; format: functional

## COc1cccc(/C=C/C(=O)c2c(O)cc(OC)cc2OC)c1
HCT-116 [1]
  Activity_index: 1.2
Caco-2 [2]
  Activity: 31%
HaCaT [3]
  Activity_index: 0.1
PC-3 [4]
  Activity: Active
HCT-116 [5]
  Activity: Active
PC-3 [6]
  Activity: Active
MCF7 [7]
  Activity: Active
HaCaT [8]
  viability at 50 µM: 7%
MDA-MB-231 [9]
  Activity_index: 3.6
NCI-H727 [10]
  viability at 50 µM: 1%
MDA-MB-231 [11]
  Activity: 54%
MCF7 [12]
  Activity: Active
PC-3 [13]
  Activity: Active
[14]
  Ratio IC50: 3.5
[15]
  Ratio IC50: 2.6
RL
  IC50: 9 µM
MDA-MB-231 [16]
  IC50: 13.2 µM
NCI-H727 [17]
  Activity: 35%
HaCaT [18]
  Activity_index: 2.6
HCT-116 [19]
  Activity: Active
MCF7 [20]
  Activity: Active
MDA-MB-231 [21]
  Activity: 38%
MCF7 [22]
  IC50: 10.3 µM
HCT-116 [23]
  Activity: 30%
Caco-2 [24]
  Activity_index: 6.1
PC-3 [25]
  Activity: 39%
HCT-116 [26]
  Activity: 37%
HCT-116 [27]
  Activity: Active
HCT-116 [28]
  Activity: Active
MDA-MB-231 [29]
  Activity: Active
NCI-H727 [30]
  Activity: 1.4%
HCT-116 [31]
  Activity_index: 0.3
Huh-7
  Activity: 8.5%
NCI-H727 [32]
  Activity_index: 0.1
[33]
  viability at 48 h, 50 µM: 44%
MDA-MB-231 [34]
  Activity: Active

## COc1cc(O)c(C(=O)/C=C/c2ccccc2)c(OC)c1 [FLAVOKAWAIN B]
HCT-116 [1]
  Activity_index: 1.1
Caco-2 [2]
  Activity: 42%
HaCaT [3]
  Activity_index: 0.9
HCT-116 [5]
  Activity: Active
PC-3 [6]
  Activity: Active
MCF7 [7]
  Activity: Active
HaCaT [8]
  viability at 50 µM: 7%
MDA-MB-231 [9]
  Activity_index: 6.8
NCI-H727 [10]
  viability at 50 µM: 2%
MDA-MB-231 [11]
  Activity: 54%
MCF7 [12]
  Activity: Active
PC-3 [13]
  Activity: Active
[14]
  Ratio IC50: 3.5
[15]
  Ratio IC50: 1.7
RL
  IC50: 8.2 µM
MDA-MB-231 [16]
  IC50: 16.3 µM
NCI-H727 [17]
  Activity: 39%
HaCaT [18]
  Activity_index: 3.4
HCT-116 [19]
  Activity: Active
MCF7 [20]
  Activity: Active
MDA-MB-231 [21]
  Activity: 40%
MCF7 [22]
  IC50: 15.5 µM
HCT-116 [23]
  Activity: 37%
Caco-2 [24]
  Activity_index: 19.3
PC-3 [25]
  Activity: 35%
HCT-116 [26]
  Activity: 28%
HCT-116 [27]
  Activity: Active
HCT-116 [28]
  Activity: Active
MDA-MB-231 [29]
  Activity: Active
NCI-H727 [30]
  Activity: 7%
HCT-116 [31]
  Activity_index: 0.6
Huh-7
  Activity: 30%
NCI-H727 [32]
  Activity_index: 0.2
[33]
  viability at 48 h, 50 µM: 32%
MDA-MB-231 [34]
  Activity: Active

## COc1cc(O)c(C(=O)/C=C/c2ccc(F)cc2)c(OC)c1
HCT-116 [1]
  Activity_index: 1.2
Caco-2 [2]
  Activity: 49%
HaCaT [3]
  Activity: inactive
PC-3 [4]
  Activity: Active
HCT-116 [5]
  Activity: Active
PC-3 [6]
  Activity: Active
MCF7 [7]
  Activity: Active
HaCaT [8]
  viability at 50 µM: 36%
MDA-MB-231 [9]
  Activity: inactive
NCI-H727 [10]
  viability at 50 µM: 54%
MDA-MB-231 [11]
  Activity: inactive
MCF7 [12]
  Activity: Active
PC-3 [13]
  Activity: Active
[14]
  Ratio IC50: >4
[15]
  Ratio IC50: >5.7
RL
  IC50: 5.4 µM
MDA-MB-231 [16]
  IC50: > 20 µM
NCI-H727 [17]
  Activity: inactive
HaCaT [18]
  Activity: inactive
HCT-116 [19]
  Activity: Active
MCF7 [20]
  Activity: Active
MDA-MB-231 [21]
  Activity: inactive
MCF7 [22]
  IC50: 8.8 µM
HCT-116 [23]
  Activity: 59%
Caco-2 [24]
  Activity_index: 24.8
PC-3 [25]
  Activity: 37%
HCT-116 [26]
  Activity: 28%
HCT-116 [27]
  Activity: Active
HCT-116 [28]
  Activity: Active
NCI-H727 [30]
  Activity: inactive
HCT-116 [31]
  Activity_index: 0.7
Huh-7
  Activity: inactive
NCI-H727 [32]
  Activity: inactive
[33]
  viability at 48 h, 50 µM: > 80%
